From patent US7262052B1, “α-2/δ gene” (Warner Lambert Company, priority 1999, dated 2007) come the findings set out here.

Assay [1] concerns voltage-gated Ca2+ channels (α1B, β1C subunits). The assay is described as follows: Ca2+ channel currents in Xenopus oocytes injected with cRNA, two-electrode voltage clamp. The class given is cell-based. Particulars: for increase in current compared to no α2δ subunits: co-injected with α1B and β1C in Xenopus oocytes. The method, then: Since α2δ-C has sequence homology to α2δ-A, and α2δ-A functions as a subunit of VSCCs, experiments were undertaken to determine if α2δ-C can replace α2δ-A and produce functional VSCCs. Xenopus oocytes were isolated using standard techniques and injected with cRNA for α1B, β1C and α2δ-C subunits of voltage-gated Ca^2+ channels. Four days to 1 week following injection of cRNA, Ca^2+ channel currents were measured using two-electrode voltage clamp with 5 mM Ba^2+ as the charge carrier. Test pulses to +10 mV from a holding membrane potential of −80 mV were applied to evoke Ca^2+ channel currents. Peak inward currents evoked during the test pulse were measured. The amplitude of inward currents is proportional to the expression level of voltage-gated Ca^2+ channels.
A general note: Two-electrode voltage clamp holds a large cell at a set potential and records current.

The target in the next assay is T1, Human α2δ-B (Homo sapiens, UniProt Q9NY47).
T1 construct: transiently transfected with the full-length porcine α2δ-A, and human α2δ-B genes; expressed in transfected cells; host or cells: COS-7 cells, pcDNA3.1 vector, lipofectamine; membranes
T1 sequence (Q9NY47 19-1145 isoform Q9NY47-3 limits assumed): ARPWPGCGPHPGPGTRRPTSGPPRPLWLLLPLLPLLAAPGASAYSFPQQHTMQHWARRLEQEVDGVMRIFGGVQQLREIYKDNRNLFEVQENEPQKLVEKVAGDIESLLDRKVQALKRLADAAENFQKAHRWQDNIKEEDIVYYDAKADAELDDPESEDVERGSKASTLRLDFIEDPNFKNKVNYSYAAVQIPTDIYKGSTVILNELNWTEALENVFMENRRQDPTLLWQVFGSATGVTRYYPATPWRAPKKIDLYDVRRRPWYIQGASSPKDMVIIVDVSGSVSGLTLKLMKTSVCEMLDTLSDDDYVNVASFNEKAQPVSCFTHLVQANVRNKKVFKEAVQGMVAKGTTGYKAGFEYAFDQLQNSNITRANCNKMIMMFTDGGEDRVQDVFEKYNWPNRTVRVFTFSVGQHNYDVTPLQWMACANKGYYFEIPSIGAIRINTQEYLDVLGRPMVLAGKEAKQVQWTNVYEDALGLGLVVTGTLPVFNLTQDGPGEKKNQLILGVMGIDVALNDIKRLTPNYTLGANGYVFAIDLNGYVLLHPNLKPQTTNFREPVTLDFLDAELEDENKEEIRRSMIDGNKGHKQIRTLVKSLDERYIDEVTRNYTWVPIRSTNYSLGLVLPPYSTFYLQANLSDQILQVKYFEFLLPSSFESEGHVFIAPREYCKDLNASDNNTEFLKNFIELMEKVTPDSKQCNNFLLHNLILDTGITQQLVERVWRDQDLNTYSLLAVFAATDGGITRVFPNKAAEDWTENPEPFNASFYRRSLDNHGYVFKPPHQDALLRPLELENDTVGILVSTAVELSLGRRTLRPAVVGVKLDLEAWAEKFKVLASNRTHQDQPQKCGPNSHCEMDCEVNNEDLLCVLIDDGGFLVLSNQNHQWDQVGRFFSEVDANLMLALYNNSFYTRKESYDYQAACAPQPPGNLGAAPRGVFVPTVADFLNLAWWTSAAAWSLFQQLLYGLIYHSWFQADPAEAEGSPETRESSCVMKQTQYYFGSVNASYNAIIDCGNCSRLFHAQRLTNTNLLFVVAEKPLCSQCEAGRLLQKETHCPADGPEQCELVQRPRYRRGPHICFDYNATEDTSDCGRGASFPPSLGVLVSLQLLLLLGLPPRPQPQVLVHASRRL
As to the kind of experiment: [3H]gabapentin saturation binding, membranes of transiently transfected COS-7 cells. An excerpt:
[…]. […] […].
The filters were then counted in a scintillation counter.

Values joined by “and” are separate entries in the source; they are usually repeats but may differ in a detail not shown here. Equal entries are not always repeated.

For “α2δA: known α2δ-A subunit of the voltage-sensitive calcium channel, comparator”, the “increase in current compared to no α2δ subunits” value in assay [1] is 20 fold.

Consider `NCC1(CC(=O)O)CCCCC1` [[3H]gabapentin, gabapentin], for which the Kd (usually the equilibrium constant for the complex coming apart) on Human α2δ-B (KD, single determinations (n = 2), 21° C., COS-7 membranes) is 32.6 nM and 87.2 nM; at Human α2δ-B (Mean KD, mean of n = 2) it was 59.9 nM. The “binding of [3H]gabapentin (in words)” value on Human α2δ-B (full-length gene product expressed transiently in COS-7) is reported as “high affinity”.

B1: α2δC: novel human α2δ-C calcium channel subunit (SEQ ID NO 5), expressed from injected cRNA (protein, listed as Homo sapiens)
chain: MAGPGSPRRASRGASALLAAALLYAALGDVVRSEQQIPLSVVKLWASAFGGEIKSIAAKYSGSQLLQKKYKEYEKDVAIEEIDGLQLVKKLAKNMEEMFHKKSEAVRRLVEAAEEAHLKHEFDADLQYEYFNAVLINERDKDGNFLELGKEFILAPNDHFNNLPVNISLSDVQVPTNMYNKDPAIVNGVYWSESLNKVFVDNFDRDPSLIWQYFGSAKGFFRQYPGIKWEPDENGVIAFDCRNRKWYIQAATSPKDVVILVDVSGSMKGLRLTIAKQTVSSILDTLGDDDFFNIIAYNEELHYVEPCLNGTLVQADRTNKEHFREHLDKLFAKGIGMLDIALNEAFNILSDFNHTGQGSICSQAIMLITDGAVDTYDTIFAKYNWPDRKVRIFTYLIGREAAFADNLKWMACANKGFFTQISTLADVQENVMEYLHVLSRPKVIDQEHDVVWTEAYIDSTLTDDQGPVLMTTVAMPVFSKQNETRSKGILLGVVGTDVPVKELLKTIPKYKLGIHGYAFAITNNGYILTHPELRLLYEEGKKRRKPNYSSVDLSEVEWEDRDDVLRNAMVNRKTGKFSMEVKKTVDKGKRVLVMTNDYYYTDIKGTPFSLGVALSRGHGKYFFRGNVTIEEGLHDLEHPDVSLADEWSYCNTDLHPEHRHLSQLEAIKLYLKGKEPLLQCDKELIQEVLFDAVVSAPIEAYWTSLALNKSENSDKGVEVAFLGTRTGLSRINLFVGAEQLTNQDFLKAGDKENIFNADHFPLWYRRAAEQIPGSFVYSIPFSTGPVNKSNVVTASTSIQLLDERKSPVVAAVGIQMKLEFFQRKFWTASRQCASLDGKCSISCDDETVNCYLIDNNGFILVSEDYTQTGDFFGEIEGAVMNKLLTMGSFKRITLYDYQAMCRANKESSDGAHGLLDPYNAFLSAVKWIMTELVLFLVEFNLCSWWHSDMTAKAQKLKQTLEPCDTEYPAFVSERTIKETTGNIACEDCSKSFVIQQIPSSNLFMVVVDSSCLCESVAPITMAPIEIRYNESLKCERLKAQKIRRRPESCHGFHPEENARECGGAPSLQAQTVLLLLPLLLMLFSR
B1: the “increase in current compared to no α2δ subunits” value in assay [1] worked out at 2 fold. For the same molecule, in assay [1] (co-injected with α1B and β1C, 5 mM Ba2+, test pulse to +10 mV from −80 mV, n=20, p<0.01 vs no α2δ), the “peak inward current amplitude” value turned out to be 213±12 nA.
